Read-outs that look alike come from different tables or passages of the source.
Target: T1, glutathione S-transferase (GST)-fused full-length human Syk protein (Homo sapiens, UniProt P43405)
T1 construct: (GST)-fused full-length human Syk protein; GST (glutathione S-transferase); purchased Carna Biosciences
Test: Syk enzyme assay
Assay type: biochemical
How it was run: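 IC50 values come from a time-resolved FRET readout (615 and 665 nm) of substrate phosphorylation, measured after an EDTA stop and 1 h antibody binding. The kinase reaction ran 40 min at room temperature with 27 μM ATP and 0.4 μM biotin-peptide, following a 15 min compound preincubation with baculovirus-made GST-full-length human Syk.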

[1] = Syk enzyme assay, Test Example 1, read-out: IC50 of Syk-inhibitory activity
[2] = read-out: Syk-inhibitory activity (IC50)

SMILES | IC50 [1] | IC50 [2]
CN1CCc2ccc(Nc3nc(N[C@@H]4CCCC[C@@H]4N)c(F)cc3C(N)=O)cc2C1 (relative stereo) [Example 006-077, 6-(cis-2-aminocyclohexylamino)-5-fluoro-2-((2-methyl-1,2,3,4-tetrahydroisoquinolin-7-yl)amino)nicotinamide] | 10 to 50 nM | –
NC(=O)c1cc(F)c(N[C@@H]2CCCC[C@@H]2N)nc1Nc1ccc2cn[nH]c2c1 (relative stereo) [Example 006-086, 6-(cis-2-aminocyclohexylamino)-5-fluoro-2-((1H-indazol-6-yl)amino)nicotinamide] | < 10 nM | –
Cn1ccc2cc(-c3cncc(Nc4nc(N[C@@H]5CCCC[C@@H]5N)c(F)cc4C(N)=O)c3)ccc21 (relative stereo) [Example 006-091, 6-((cis-2-aminocyclohexyl)amino)-5-fluoro-2-((5-(1-methyl-1H-indol-5-yl)pyridin-3-yl)amino)nicotinamide] | 10 to 50 nM | –
NC(=O)c1cc(F)c(N[C@@H]2CCCC[C@@H]2N)nc1Nc1cncc(-n2ccnc2)c1 (relative stereo) [Example 006-127, 2-((5-(1H-imidazol-1-yl)pyridin-3-yl)amino)-6-((cis-2-aminocyclohexyl)amino)-5-fluoronicotinamide] | 10 to 50 nM | –
NC(=O)c1cc(F)c(N[C@@H]2CCCC[C@@H]2N)nc1Nc1ccnc(-c2cc[nH]c2)c1 (relative stereo) [Example 006-131, 2-((2-(1H-pyrrol-3-yl)pyridin-4-yl)amino)-6-((cis-2-aminocyclohexyl)amino)-5-fluoronicotinamide] | < 10 nM | –
Cc1ncc(Nc2nc(N[C@@H]3CCCC[C@@H]3N)c(F)cc2C(N)=O)cc1-n1ccnn1 (relative stereo) [Example 006-152, 6-((cis-2-aminocyclohexyl)amino)-5-fluoro-2-((6-methyl-5-(1H-1,2,3-triazol-1-yl)pyridin-3-yl)amino)nicotinamide] | 10 to 50 nM | –
NC(=O)c1cc(F)c(N[C@@H]2CCCC[C@@H]2N)nc1Nc1ccc(Nc2ccccc2)nc1 (relative stereo) [Example 006-164, 6-((cis-2-aminocyclohexyl)amino)-5-fluoro-2-((6-(phenylamino)pyridin-3-yl)amino)nicotinamide] | 10 to 50 nM | –
Cn1cc(Nc2nc(N[C@@H]3CCCC[C@@H]3N)c(F)cc2C(N)=O)cc(-n2ccnn2)c1=O (relative stereo) [Example 006-428, 6-((cis-2-aminocyclohexyl)amino)-5-fluoro-2-((1-methyl-6-oxo-5-(1H-1,2,3-triazol-1-yl)-1,6-dihydropyridin-3-yl)amino)nicotinamide] | 50 to 100 nM | –
NC(=O)c1cc(F)c(N[C@@H]2CCCC[C@@H]2N)nc1Nc1cncc(NC(=O)c2ccccc2)c1 (relative stereo) [Example 26, 6-(cis-2-aminocyclohexylamino)-2-(5-benzoylaminopyridin-3-ylamino)-5-fluoronicotinamide] | – | ≤ 1000 nM
NC(=O)c1cc(F)c(N[C@@H]2CCCC[C@@H]2N)nc1Nc1cncc(NC(=O)c2ccc(S(=O)(=O)F)cc2)c1 (relative stereo) [Example 027-017, 4-((5-(6-(cis-2-aminocyclohexylamino)-3-carbamoyl-5-fluoropyridin-2-yl)aminopyridin-3-yl)carbamoyl)benzene-1-sulfonyl fluoride] | 10 to 50 nM | –
NC(=O)c1cc(F)c(N[C@@H]2CCCC[C@@H]2N)nc1Nc1cncc(NC(=O)c2ccno2)c1 (relative stereo) [Example 027-036, N-(5-(6-(cis-2-aminocyclohexylamino)-3-carbamoyl-5-fluoropyridin-2-yl)aminopyridin-3-yl)isoxazole-5-carboxamide] | < 10 nM | –
Cn1nnc2cc(C(=O)Nc3cncc(Nc4nc(N[C@@H]5CCCC[C@@H]5N)c(F)cc4C(N)=O)c3)ccc21 (relative stereo) [Example 027-042, N-(5-(6-(cis-2-aminocyclohexylamino)-3-carbamoyl-5-fluoropyridin-2-yl)aminopyridin-3-yl)-1-methyl-1H-benzo[d][1,2,3]triazol-5-carboxamide] | < 10 nM | –
NC(=O)c1cncc(Nc2nc(N[C@@H]3CCCC[C@@H]3N)c(F)cc2C(N)=O)c1 (relative stereo) [Example 28, 2-(5-aminocarbonylpyridin-3-ylamino)-6-(cis-2-aminocyclohexylamino)-5-fluoronicotinamide] | – | ≤ 1000 nM
NC(=O)c1cc(F)c(N[C@@H]2CCCC[C@@H]2N)nc1Nc1cncc(C(=O)O)c1 (relative stereo) [Example 29-1, 5-((3-aminocarbonyl-6-(cis-2-aminocyclohexylamino)-5-fluoropyridin-2-yl)amino)nicotinic acid] | – | ≤ 1000 nM
NC(=O)c1cc(Nc2nc(N[C@@H]3CCCC[C@@H]3N)c(F)cc2C(N)=O)ccn1 (relative stereo) [Example 29-12, 4-((3-aminocarbonyl-6-(cis-2-aminocyclohexylamino)-5-fluoropyridin-2-yl)amino)pyridin-2-carboxamide] | – | ≤ 1000 nM
CNC(=O)c1cc(Nc2nc(N[C@@H]3CCCC[C@@H]3N)c(F)cc2C(N)=O)ccn1 (relative stereo) [Example 29-13, 4-((3-aminocarbonyl-6-(cis-2-aminocyclohexylamino)-5-fluoropyridin-2-yl)amino)-N-methylpyridin-2-carboxamide] | – | ≤ 1000 nM
NC(=O)c1cc(F)c(N[C@@H]2CCCC[C@@H]2N)nc1Nc1ccc2[nH]c(C(=O)N3CCOCC3)cc2c1 (relative stereo) [Example 029-017, 6-(cis-2-aminocyclohexylamino)-5-fluoro-2-((2-(morpholine-4-carbonyl)-1H-indol-5-yl)amino)nicotinamide] | < 10 nM | –
NC(=O)c1cc(F)c(N[C@@H]2CCCC[C@@H]2N)nc1Nc1ccc2[nH]c(C(=O)NCc3ccccc3)cc2c1 (relative stereo) [Example 029-018, 5-((6-(cis-2-aminocyclohexylamino)-3-carbamoyl-5-fluoropyridin-2-yl)amino)-N-benzyl-1H-indole-2-carboxamide] | < 10 nM | –
NC(=O)c1cc(F)c(N[C@@H]2CCCC[C@@H]2N)nc1Nc1ccc2[nH]c(C(=O)NCCN3CCOCC3)cc2c1 (relative stereo) [Example 029-019, 5-((6-(cis-2-aminocyclohexylamino)-3-carbamoyl-5-fluoropyridin-2-yl)amino)-N-(2-morpholinoethyl)-1H-indole-2-carboxamide] | < 10 nM | –
CS(=O)(=O)Nc1cccc2cc(Nc3nc(N[C@@H]4CCCC[C@@H]4N)c(F)cc3C(N)=O)cnc12 (relative stereo) [Example 41-2, 6-(cis-2-aminocyclohexylamino)-5-fluoro-2-((8-(methylsulphonamide)quinolin-3-yl)amino)nicotinamide] | < 10 nM | –
NC(=O)c1cc(F)c(N[C@@H]2CCCC[C@@H]2N)nc1Nc1cnc2c(NS(=O)(=O)CCl)cccc2c1 (relative stereo) [Example 41-3, 6-(cis-2-aminocyclohexylamino)-2-((8-(2-chloromethylsulphonamide)quinolin-3-yl)amino)-5-fluoronicotinamide] | 10 to 50 nM | –
COc1ccc(S(=O)(=O)Nc2cccc3cc(Nc4nc(N[C@@H]5CCCC[C@@H]5N)c(F)cc4C(N)=O)cnc23)cc1 (relative stereo) [Example 41-5, 6-(cis-2-aminocyclohexylamino)-5-fluoro-2-((8-(4-methoxyphenylsulphonamide)quinolin-3-yl)amino)nicotinamide] | 50 to 100 nM | –

Reference: patent US8895585B2, “Nicotinamide derivative or salt thereof” (FUJIFILM Corporation, priority 2010, dated 2014)
